According to patent US20120178672A1, “Compositions and Methods for Sparing Muscle in Renal Insufficiency and During Hemodialysis” (priority 2009, published 2012):

System: subjects
Assay: Rate of urea production by tracer technique after ingestion of EAAs following resistance exercise
Format: in vivo
Conditions: infusion, same tracer methodology, same time interval
Method: Acute changes in the rate of urea production were measured using a tracer technique known to those of skill in the art. […] The reason for the lack of an increase in urea production is believed to be the reutilization of non-essential amino acids for muscle protein synthesis rather than transport to the liver for degradation and incorporation of the nitrogen into urea. This is reflected by the steady drop in the concentration of alanine in the blood, as depicted in the chart of FIG. 2B. Thus, the EAA blend greatly stimulates net muscle protein synthesis without increasing blood urea concentration. This aspect of the disclosed composition is of potentially great advantage to CKD patients, as the provision of intact protein alone increases blood urea while having minimal effect on muscle protein net balance.

Row | SMILES | Urea production
1 | C[C@H](N)C(=O)O [alanine] | stimulated urea significantly
2 | NC(=O)CC[C@H](N)C(=O)O [glutamine] | stimulated urea significantly
